Test results as given in article PMC4452589, “An evaluation of the brain distribution of [^11C]GSK1034702, a muscarinic-1 (M1) positive allosteric modulator in the living human brain using positron emission tomography” (EJNMMI Research, 2014).

Legend:
[1] = plasma concentration after single 5-mg oral dose in humans; format: in vivo; details: human, read-out: GSK1034702 plasma concentration at start of post-dose PET scan
Protocol: Serial venous blood samples were obtained at 0, 1, 2, 3, 4 and 5.5 h after the administration of a single oral dose of 5 mg of GSK1034702, to estimate the time course of GSK1034702 plasma concentration. Plasma samples were analysed using a validated analytical method.

[2] = safety and tolerability of single 5-mg oral dose in healthy males; format: in vivo, human; details: single oral dose of 5 mg
Protocol: An open-label PET study (GSK study number 110771) was conducted to assess the transport of [^11C]GSK1034702 across the BBB and its distribution in the living human brain. Four healthy males aged between 35 and 55 years old, with body mass index (BMI) between 19.0 and 29.0 kg/m^2, and the absence of past or present neurological, medical or psychiatric illnesses and concomitant medications were enrolled. Clinical status was assessed by history, physical examination, routine blood tests, urine toxicology and electrocardiogram. All subjects provided written informed consent. The study was approved by the Edinburgh Independent Ethics Committee for Medical Research and permission to administer radioisotopes was obtained from the Administration of Radioactive Substances Advisory Committee of the UK. Subjects were recruited by and monitored by the Hammersmith Medicines Research (HMR) clinic. All scanning procedures were performed at the GlaxoSmithKline Clinical Imaging Center, Hammersmith Hospital, London.
Each subject underwent a single study day, during which PET imaging was performed. T1-weighted structural MRI scan was performed for all subjects to provide neuroanatomical information. A tracer dose of [^11C]GSK1034702 (mass <50 μg) was administered as an IV bolus immediately before each PET scan. During the scanning day, each subject received a baseline [^11C]GSK1034702 scan, followed by a single 5-mg oral dose (p.o.) of […] and a subsequent [^11C]GSK1034702 scan approximately 4 h post-dose. Subjects returned to the clinic for a follow-up visit 7 to 14 days following the oral dose of GSK1034702.

[3] = plasma protein binding by equilibrium dialysis, mouse; format: in vitro ADME; details: equilibrium dialysis 5 h
Protocol: (§1) The in vitro brain and plasma protein binding of GSK1034702 across a range of species was determined using equilibrium dialysis as described previously.

[4] = plasma protein binding by equilibrium dialysis, dog; format: in vitro ADME; details: equilibrium dialysis 5 h
Protocol: as §1

[5] = plasma protein binding by equilibrium dialysis, monkey; format: in vitro ADME; details: equilibrium dialysis 5 h
Protocol: as §1

[6] = plasma protein binding by equilibrium dialysis, human; format: in vitro ADME; details: equilibrium dialysis 5 h
Protocol: as §1

[7] = brain tissue binding by equilibrium dialysis, dog; format: in vitro ADME; details: equilibrium dialysis 5 h
Protocol: as §1

[8] = fP/fND ratio from equilibrium dialysis (expected VT for passive diffusion), primate; format: in vitro ADME; details: primate brain; monkey fP and monkey brain fND
Excerpt: If a value for fND can be obtained, then the assumption of passive diffusion across the BBB can be tested. Under the conditions of passive diffusion, at equilibrium, CFT = CFP, and Eq. 3 is simplified to:4 VT=fP/fND
A VT measurement from a PET biodistribution study can be compared to the fP/fND ratio, and passive diffusion can be assumed if the two are similar. Equilibrium dialysis provides a practical method for measurements of brain tissue fND (and also fP if necessary).
Regional TACs with an arterial plasma metabolite- corrected input function were fitted using compartmental analyses, and estimates of the delivery rate constant for transfer from arterial plasma to tissue (K1) and VT were obtained. VT estimates derived were compared to in vitro estimates derived from equilibrium dialysis to investigate the BBB transport process.
as §1

human m2-5AChR receptors = test system: human m2-5AChR receptors; parameters: method as in earlier work; details: versus m1AChR; cited from earlier work
[9] = parameters: method as in GlaxoSmithKline (GSK) data on file; details: mouse; ref GlaxoSmithKline (GSK) data on file; cited from earlier work
[10] = parent fraction in arterial plasma by HPLC during PET scan; format: in vivo; details: human, baseline and post-dose sessions, 90 min
Protocol: Arterial blood radioactivity was measured continuously for the first 15 min after [^11C]GSK1034702 injection, using a continuous sampling system (ABSS Allogg, Mariefred, Sweden). In addition, 12 serial discrete blood samples were obtained (at 5, 10, 15, 20, 25, 30, 40, 50, 60, 70, 80 and 90 min post injection), to determine whole blood and plasma activity. Seven samples (at 5, 10, 20, 30, 50, 70 and 90 min) were further processed by HPLC to measure the fraction of plasma activity representing unmetabolised GSK1034702. For all human studies, the non-protein-bound fraction of [^11C]GSK1034702 in arterial plasma (fP) was assessed by ultrafiltration for the blood sample taken at the beginning of the scan.

[11] = mean ± SD, n = 6, read-out: Plasma protein binding (converted)
[12] = read-out: f P (plasma-free fraction)

Question: For `Cc1cc(F)c2[nH]c(=O)n(C3CCN(C4CCOCC4)CC3)c2c1` [GSK1034702], which concentration at 3.2 h ([1]; Subject 2, 3.2 hours post dose) is on record?
Answer: 7.9 ng/mL

Question: And the concentration at 4.4 h ([1]; Subject 3, 4.4 hours post dose)?
Answer: 13.2 ng/mL

Question: And the concentration at 3.8 h ([1]; Subject 4, 3.8 hours post dose)?
Answer: 10.4 ng/mL

Question: And the serious adverse events [2]?
Answer: No serious adverse events

Question: And the tolerability ([2]; healthy male subjects)?
Answer: well tolerated

Question: What about the adverse events ([2]; one subject, salivary hypersecretion and dysgeusia, considered drug-related) of the same compound?
Answer: two mild and transient adverse events

Question: And the fraction unbound at 5 h, 1 μg/mL [3, 11]?
Answer: 0.518

Question: What about the fraction unbound at 5 h, 1 μg/mL [3, 12] of the same compound?
Answer: 0.52

Question: And the fraction unbound at 5 h, 1 μg/mL [4, 11]?
Answer: 0.555

Question: And the fraction unbound at 5 h, 1 μg/mL [4, 12]?
Answer: 0.56

Question: What about the fraction unbound at 5 h, 1 μg/mL [5, 11] of the same compound?
Answer: 0.583

Question: What about the fraction unbound at 5 h, 1 μg/mL [5, 12] of the same compound?
Answer: 0.58

Question: What about the fraction unbound at 5 h, 1 μg/mL [6, 11] of the same compound?
Answer: 0.442

Question: And the fraction unbound at 5 h, 1 μg/mL [6, 12]?
Answer: 0.44

Question: And the fraction unbound at 5 h, 1 μg/mL ([7]; brain tissue, read-out: f ND (brain-free fraction))?
Answer: 0.18

Question: What about the Brain tissue binding ([7]; 1 μg/mL, mean ± SD, n = 6) of the same compound?
Answer: 81.8 (±1.8) %

Question: What about the “fP/fND ratio (expected VT if passive diffusion)” value [8] of the same compound?
Answer: 3.4

Question: What about the “selectivity over human m2-5AChR receptors” value (human m2-5AChR receptors) of the same compound?
Answer: 100 fold

Question: What about the brain/blood ratio [9] of the same compound?
Answer: 0.4

Question: Which “metabolism over the time course of the PET scan (parent fraction in plasma)” value [10] does the source give for `[11CH3]c1cc(F)c2[nH]c(=O)n(C3CCN(C4CCOCC4)CC3)c2c1` [[^11C]GSK1034702] here?
Answer: minimal metabolism
